This is an account of results in US20230002798A1, “PROCESS FOR THE PREPARATION OF A FERMENTABLE SUGAR COMPOSITION AND THE FERMENTATION THEREOF” (WeissBioTech GmbH, priority 2019, published 2023).

The target in this test is Agl1 (Bifidobacterium breve, UniProt C0JP82). The test can be described thus: Product inhibition of pNPG hydrolysis. The conditions noted are these: 2 mM pNPG.

In the case of `OC[C@H]1O[C@H](O[C@H]2[C@H](O)[C@@H](O)C(O)O[C@@H]2CO)[C@H](O)[C@@H](O)[C@@H]1O` (mixture of isomers) [maltose], the “IC50 (product inhibition)” value is 100 mg/mL.
